In US20250188123A1, “PROTEASE INHIBITORS” (Regents of the University of Minnesota, priority 2022, published 2025):

Tested on: primary hippocampal neurons overexpressing P301S tau (Tau−/+) and littermate controls (Tau−/−)
Assay: mEPSC recording in primary hippocampal neurons from PS19 transgenic mice expressing P301S tau
Assay type: cell-based, mouse
Settings: 10 μM; for average amplitude of mEPSC responses in Tau−/+ versus Tau−/− neurons: 3 days in culture media; for cumulative curve of mEPSC amplitudes, Tau−/+ compared with Tau−/−: Mann-Whitney U test
Method: For these studies, PS19 transgenic mice expressing P301S mutant tau, one of the most used models of FTDP-17 were used (Feinstein S. Faculty Opinions recommendation of Synapse loss and microglial activation precede tangles in a P301S tauopathy mouse model. Faculty Opinions—Post-Publication Peer Review of the Biomedical Literature. 2007; and Takeuchi H, et al., PLoS One., 2011, 6, e21050). To detect functional deficits, primary hippocampal neurons were cultured from heterozygous transgenic mice overexpressing P301S tau (Feinstein S. Faculty Opinions recommendation of Synapse loss and microglial activation precede tangles in a P301S tauopathy mouse model. Faculty Opinions—Post-Publication Peer Review of the Biomedical Literature. 2007; and Takeuchi H, et al., PLoS One., 2011, 6, e21050) and littermate controls, (denoted Tau−/+ and Tau−/− respectively in FIG. 3), and recorded miniature excitatory synaptic currents (mEPSCs).
Briefly, a 22 mm diameter glass coverslip (0.09 mm thickness) was silicone-sealant-fastened to the bottom of a 35 mm culture dish with a bored hole of 20 mm in diameter and sterilized as described by Smith B R, et al., Acta Neuropathologica Communications, 2019, 7(1), 124. Coverslips were coated with poly-D-lysine. Hippocampi were dissected from neonatal Sprague-Dawley timed-pregnancy rats (Envigo) or appropriate transgenic mice and control littermates (see main text) at post-natal day 0-1. Hippocampi were enzymatically digested in Earle's Balanced Salt Solution (EBSS) supplemented with 1% glucose and cysteine-activated papain. Digestion was blocked with dilute BSA (bovine serum albumin) and chicken ovomucoid, and cells were rinsed in fresh EBSS and plated in plating medium (minimal essential medium with Earle's salts, 10% fetal bovine serum, 5% horse serum, 2 mM glutamine, 10 mM sodium pyruvate, 0.6% glucose, 100 U/ml penicillin and […] streptomycin) at 1.0×10^6 cells/dish. After 18 h cell adherence was established. Cells were then grown in a neurobasal medium (a 1:5 mixture of NbActiv4 to NbActiv1; BrainBits LLC) and incubated at 37° C. in a 5% CO2 biological incubator.
Miniature excitatory postsynaptic currents (mEPSCs) were recorded from cultured dissociated mouse hippocampal neurons at 17-21 DIV with a glass pipette (resistance ˜5 MΩ) at holding potentials of −65 mV on an Axopatch 200B amplifier (output gain=0.5; filtered at 1 kHz) as we previously described (Miller E C, et al., Eur J Neurosci., 2014, 39, 214-224). Input and series resistances were assessed and found to have no significant difference before and after recording time (5-20 mins). Recording sweeps lasted 200 ms and were sampled for every 1 s (pClamp, v10, RRID: SCR_011323). Neurons were bathed in bubble-oxygenated artificial cerebrospinal fluid (ACSF) at 23° C. with 100 μM APV (NMDA receptor antagonist), 1 μM TTX (sodium channel blocker), and 100 μM picrotoxin (GABAa receptor antagonist). Passive oxygen perfusion was established with medical-grade 95% O2-5% CO2. ACSF contained (in mM) 119 NaCl, 2.5 KCl, 5.0 CaCl2), 2.5 MgCl2, 26.2 NaHCO3, 1 NaH2PO4, and 11 D-glucose. The internal solution of the glass pipettes contained (in mM) 100 cesium gluconate, 0.2 EGTA, 0.5 MgCl2, 2 ATP, 0.3 GTP, and 40 HEPES. The pH of the internal solution was normalized to 7.2 with cesium hydroxide and diluted to a trace osmotic deficit in comparison to ACSF (˜300 mOsm). All analysis of recordings was performed using an automated detection software suit (Clampfit, 11.0.3, Molecular Devices, San Jose, CA, USA). Minimum analysis parameters were set at greater than 1 min stable recording time and events with amplitudes greater than 3 pA and smaller than 40 pA were included. A mEPSC event was identified by using a template which included a distinct fast-rising depolarization and slow-decaying repolarization. […]

Row | SMILES | average amplitude of mEPSC responses in Tau−/+ versus Tau−/− neurons | cumulative curve of mEPSC amplitudes, Tau−/+ compared with Tau−/− (3 days) | average amplitudes of mEPSC responses of Tau−/+ neurons versus those treated with Compound 30a or 30b (3 days)
1 | CC(=O)N[C@H](C(=O)NC(CC(=O)O)C(=O)N[C@H](C(=O)N1CCc2cc(C)ccc2C1C(=O)N[C@H](C=O)CC(=O)O)C(C)C)C(C)C (stereo in doubt) [Compound 30a, (R)-3-((S)-2-acetamido-3-methylbutanamido)-4-(((S)-1-((S)-1-(((S)-1-carboxy-3-oxopropan-2-yl)carbamoyl)-6-methyl-3,4-dihydroisoquinolin-2(1H)-yl)-3-methyl-1-oxobutan-2-yl)amino)-4-oxobutanoic acid, reference compound] | significantly smaller | shifted to the left | 
2 | Cc1ccc2c(c1)CCN(C(=O)[C@@H](NC(=O)[C@H](CCCC(=O)O)NC(=O)C1Cc3ccccc3N1)C(C)C)[C@@H]2C(=O)N[C@H](C#N)CC(=O)O (stereo partly drawn) [Compound 1, (8)-6-(((S)-1-((8)-1-(((S)-2-carboxy-1-cyanoethyl)carbamoyl)-6-methyl-3,4-dihydroisoquinolin-2(1H)-yl)-3-methyl-1-oxobutan-2-yl)amino)-5-((S)-indoline-2-carboxamido)-6-oxohexanoic acid] | do not differ significantly | not significantly shifted | significantly larger
3 | CC(=O)N[C@H](C(=O)N[C@@H](CC(=O)O)C(=O)N[C@H](C(=O)N1CCc2cc(C)ccc2[C@H]1C(=O)N[C@H](C=O)CC(=O)O)C(C)C)C(C)C [Compound 30b, (S)-3-((S)-2-acetamido-3-methylbutanamido)-4-(((S)-1-((S)-1-(((S)-1-carboxy-3-oxopropan-2-yl)carbamoyl)-6-methyl-3,4-dihydroisoquinolin-2(1H)-yl)-3-methyl-1-oxobutan-2-yl)amino)-4-oxobutanoic acid, reference compound] |  | shifted to the left but less markedly | 
